# Test results as given in ChEMBL document CHEMBL1130196, “Selective, orally active 5-HT1D receptor agonists as potential antimigraine agents” (J Med Chem, 1997).
# How the values were obtained:
# [1] = biological target: T1, 5-hydroxytryptamine receptor 1D (Homo sapiens, UniProt P28221); test: Maximum stimulation of [35S]GTP-gamma-S, binding to 5-hydroxytryptamine 1D receptor relative to 5-HT; format: functional
# [2] = biological target: T2, 5-hydroxytryptamine receptor 1B (Homo sapiens, UniProt P28222); test: Displacement of [3H]5-HT from human 5-hydroxytryptamine 1B receptor expressed in CHO cells; format: cell-based
# [3] = biological target: T1, 5-hydroxytryptamine receptor 1D; test: Displacement of [3H]5-HT from human 5-hydroxytryptamine 1D receptor expressed in CHO cells; format: cell-based
# [4] = biological target: T1, 5-hydroxytryptamine receptor 1D; test: Stimulation of [35S]GTP-gamma-S, binding in CHO cells expressing 5-hydroxytryptamine 1D receptor; format: functional, cell-based
# [5] = biological target: T3, 5-hydroxytryptamine receptor 1A (Mus musculus, UniProt Q64264); test: Compound was evaluated for the affinity at 5-hydroxytryptamine 1A receptor
# T3 sequence (Q64264 whole entry): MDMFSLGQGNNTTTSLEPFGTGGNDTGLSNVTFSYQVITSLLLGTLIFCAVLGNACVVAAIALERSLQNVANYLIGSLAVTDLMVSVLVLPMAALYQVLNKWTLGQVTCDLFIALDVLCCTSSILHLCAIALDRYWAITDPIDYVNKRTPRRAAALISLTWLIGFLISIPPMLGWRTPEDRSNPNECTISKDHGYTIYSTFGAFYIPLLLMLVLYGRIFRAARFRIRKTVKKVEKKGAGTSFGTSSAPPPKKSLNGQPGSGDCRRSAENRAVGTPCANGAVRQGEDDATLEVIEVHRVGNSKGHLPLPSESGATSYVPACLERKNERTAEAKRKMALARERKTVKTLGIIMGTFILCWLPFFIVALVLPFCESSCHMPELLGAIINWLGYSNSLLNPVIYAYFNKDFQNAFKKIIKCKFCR
# [6] = biological target: T2, 5-hydroxytryptamine receptor 1B; test: Compound was evaluated for the affinity at 5-hydroxytryptamine 1B receptor
# [7] = biological target: T1, 5-hydroxytryptamine receptor 1D; test: Compound was evaluated for the stimulation of [35S]GTP-gamma-S, binding in CHO cells expressing the 5-hydroxytryptamine 1D receptor.; format: functional, cell-based
# [8] = biological target: 5-hydroxytryptamine receptor 1E (Homo sapiens, UniProt P28566); test: Compound was evaluated for the affinity at 5-hydroxytryptamine 1E receptor
# [9] = biological target: T4, 5-hydroxytryptamine receptor 1F (Homo sapiens, UniProt P30939); test: Compound was evaluated for the affinity at 5-hydroxytryptamine 1F receptor
# T4 sequence (P30939 whole entry): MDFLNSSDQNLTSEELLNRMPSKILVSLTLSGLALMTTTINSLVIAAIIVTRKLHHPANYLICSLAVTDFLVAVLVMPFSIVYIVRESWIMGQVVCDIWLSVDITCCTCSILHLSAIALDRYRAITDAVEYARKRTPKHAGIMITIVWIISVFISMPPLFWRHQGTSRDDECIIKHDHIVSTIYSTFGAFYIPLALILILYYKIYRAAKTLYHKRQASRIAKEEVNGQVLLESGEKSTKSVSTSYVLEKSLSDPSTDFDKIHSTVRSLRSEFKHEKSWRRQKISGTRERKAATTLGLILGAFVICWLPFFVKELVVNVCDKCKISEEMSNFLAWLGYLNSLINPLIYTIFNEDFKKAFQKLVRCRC
# [10] = biological target: T1, 5-hydroxytryptamine receptor 1D; test: Compound was evaluated for the affinity at 5-hydroxytryptamine 1D receptor
# [11] = biological target: 5-hydroxytryptamine receptor 2A (Homo sapiens, UniProt P28223); test: Compound was evaluated for the affinity at 5-hydroxytryptamine 2A receptor
# [12] = biological target: T5, 5-hydroxytryptamine receptor 3A (Homo sapiens, UniProt P46098); test: Compound was evaluated for the affinity at 5-hydroxytryptamine 3 receptor
# T5 sequence (P46098 whole entry): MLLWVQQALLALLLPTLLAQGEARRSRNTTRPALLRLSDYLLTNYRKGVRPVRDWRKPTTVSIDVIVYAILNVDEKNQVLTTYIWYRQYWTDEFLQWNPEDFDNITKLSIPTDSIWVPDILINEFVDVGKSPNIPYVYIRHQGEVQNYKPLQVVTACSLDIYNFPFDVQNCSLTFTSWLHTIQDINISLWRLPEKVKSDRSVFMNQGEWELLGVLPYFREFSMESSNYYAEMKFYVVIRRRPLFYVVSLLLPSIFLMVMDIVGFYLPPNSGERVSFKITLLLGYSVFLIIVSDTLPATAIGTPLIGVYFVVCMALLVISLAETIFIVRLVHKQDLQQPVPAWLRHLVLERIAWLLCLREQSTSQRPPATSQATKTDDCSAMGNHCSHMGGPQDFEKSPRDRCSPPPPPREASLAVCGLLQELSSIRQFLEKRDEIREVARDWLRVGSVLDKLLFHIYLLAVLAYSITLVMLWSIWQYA
# [13] = biological target: T6, 5-hydroxytryptamine receptor 2C (Homo sapiens, UniProt P28335); test: Compound was evaluated for the affinity at 5-hydroxytryptamine 2C receptor
# T6 sequence (P28335 whole entry): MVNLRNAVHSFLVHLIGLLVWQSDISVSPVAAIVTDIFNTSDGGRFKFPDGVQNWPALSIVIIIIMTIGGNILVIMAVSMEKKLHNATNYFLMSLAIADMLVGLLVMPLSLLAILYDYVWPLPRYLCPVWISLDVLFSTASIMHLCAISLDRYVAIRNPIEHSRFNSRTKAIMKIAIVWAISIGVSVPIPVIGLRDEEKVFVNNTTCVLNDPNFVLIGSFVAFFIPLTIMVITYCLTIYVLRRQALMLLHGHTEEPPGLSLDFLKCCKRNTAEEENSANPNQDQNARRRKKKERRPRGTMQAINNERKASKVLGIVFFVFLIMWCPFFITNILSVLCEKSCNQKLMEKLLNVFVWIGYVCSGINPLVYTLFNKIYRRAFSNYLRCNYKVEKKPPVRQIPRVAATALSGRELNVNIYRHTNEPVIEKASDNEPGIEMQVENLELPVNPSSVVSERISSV
# T1 sequence (P28221 whole entry): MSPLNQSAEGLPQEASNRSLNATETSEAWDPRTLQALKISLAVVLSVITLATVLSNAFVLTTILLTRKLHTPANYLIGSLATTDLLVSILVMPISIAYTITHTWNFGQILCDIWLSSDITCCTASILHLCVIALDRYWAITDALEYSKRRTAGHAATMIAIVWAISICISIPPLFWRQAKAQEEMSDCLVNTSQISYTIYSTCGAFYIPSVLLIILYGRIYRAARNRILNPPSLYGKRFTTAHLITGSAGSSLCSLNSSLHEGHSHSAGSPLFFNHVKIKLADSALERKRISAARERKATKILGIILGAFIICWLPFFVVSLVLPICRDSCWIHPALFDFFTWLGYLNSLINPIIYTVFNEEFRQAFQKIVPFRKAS
# T2 sequence (P28222 whole entry): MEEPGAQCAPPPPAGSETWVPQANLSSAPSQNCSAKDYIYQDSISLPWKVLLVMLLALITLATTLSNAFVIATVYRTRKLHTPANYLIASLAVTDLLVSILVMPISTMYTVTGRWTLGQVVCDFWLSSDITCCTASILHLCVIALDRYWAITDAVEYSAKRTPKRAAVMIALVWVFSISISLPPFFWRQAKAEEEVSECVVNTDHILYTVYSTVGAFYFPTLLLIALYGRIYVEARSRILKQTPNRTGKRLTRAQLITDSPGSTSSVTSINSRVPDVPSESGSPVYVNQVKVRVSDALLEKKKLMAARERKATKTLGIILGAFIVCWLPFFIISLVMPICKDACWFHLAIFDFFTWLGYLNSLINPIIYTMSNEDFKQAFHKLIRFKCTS
# Sequence of 5-hydroxytryptamine receptor 1E (P28566 whole entry): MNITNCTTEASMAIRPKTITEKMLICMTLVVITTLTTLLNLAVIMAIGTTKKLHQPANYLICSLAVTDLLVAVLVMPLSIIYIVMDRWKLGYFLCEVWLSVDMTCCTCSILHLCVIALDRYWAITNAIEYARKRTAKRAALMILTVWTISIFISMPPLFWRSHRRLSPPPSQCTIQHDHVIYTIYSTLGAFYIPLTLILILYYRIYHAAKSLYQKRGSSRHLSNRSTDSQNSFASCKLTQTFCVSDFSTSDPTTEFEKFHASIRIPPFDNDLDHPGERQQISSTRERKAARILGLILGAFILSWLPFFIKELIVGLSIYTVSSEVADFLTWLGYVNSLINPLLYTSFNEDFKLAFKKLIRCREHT
# Sequence of 5-hydroxytryptamine receptor 2A (P28223 whole entry): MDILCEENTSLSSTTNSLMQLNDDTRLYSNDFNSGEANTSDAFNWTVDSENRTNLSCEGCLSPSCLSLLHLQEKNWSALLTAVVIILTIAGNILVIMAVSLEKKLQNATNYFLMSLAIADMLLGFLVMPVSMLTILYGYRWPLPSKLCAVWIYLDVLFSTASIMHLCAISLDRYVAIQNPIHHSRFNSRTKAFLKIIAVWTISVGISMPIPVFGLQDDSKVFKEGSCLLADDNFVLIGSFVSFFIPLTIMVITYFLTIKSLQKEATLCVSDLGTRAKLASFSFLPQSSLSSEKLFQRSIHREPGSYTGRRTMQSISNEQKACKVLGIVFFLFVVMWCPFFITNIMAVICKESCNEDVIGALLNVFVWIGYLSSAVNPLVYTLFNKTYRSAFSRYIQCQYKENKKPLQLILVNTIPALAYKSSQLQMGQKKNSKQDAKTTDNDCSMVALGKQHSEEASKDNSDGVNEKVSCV
Efficacy [1],IC50 [2],IC50 [3],EC50 [4],Compound,other results
104%,430 nM,35 nM,53 nM,CN1CCN(CCCc2c[nH]c3ccc(-n4cnnc4)cc23)CC1,
96%,170 nM,1.8 nM,1.6 nM,CC(=O)Nc1cccc(CCN2CCN(CCCc3c[nH]c4ccc(-n5cnnc5)cc34)CC2)c1,
56%,8.1 nM,0.2 nM,0.1 nM,c1ccc(CN2CCN(CCCc3c[nH]c4ccc(-n5cnnc5)cc34)CC2)cc1,
86%,98 nM,1 nM,1.9 nM,Fc1ccc(CCN2CCN(CCCc3c[nH]c4ccc(-n5cnnc5)cc34)CC2)cc1F,
,75 nM,0.6 nM,,Fc1cccc(CCN2CCN(CCCc3c[nH]c4ccc(-n5cnnc5)cc34)CC2)c1,IC50 [5]: 55 nM; IC50 [6]: 75 nM; EC50 [7]: 1.2 nM; IC50 [8]: > 10000 nM; IC50 [9]: 3800 nM; IC50 [10]: 0.6 nM; IC50 [11]: 370 nM; IC50 [12]: > 10000 nM; IC50 [13]: 9000 nM
85%,251 nM,1.3 nM,1.9 nM,CC(=O)Nc1ccc(CCN2CCN(CCCc3c[nH]c4ccc(-n5cnnc5)cc34)CC2)cc1,
,,,,CNS(=O)(=O)Cc1ccc2[nH]cc(CCN(C)C)c2c1,IC50 [5]: 450 nM; IC50 [8]: 2400 nM
80%,100 nM,0.6 nM,1.5 nM,Fc1ccccc1CCN1CCN(CCCc2c[nH]c3ccc(-n4cnnc4)cc23)CC1,
81%,120 nM,0.8 nM,1.5 nM,Fc1ccc(CCN2CCN(CCCc3c[nH]c4ccc(-n5cnnc5)cc34)CC2)cc1,
65%,170 nM,1.4 nM,0.9 nM,c1ccc(CCN2CCN(CCCc3c[nH]c4ccc(-n5cnnc5)cc34)CC2)cc1,
86%,47 nM,0.7 nM,0.6 nM,Fc1cc(F)cc(CCN2CCN(CCCc3c[nH]c4ccc(-n5cnnc5)cc34)CC2)c1,

Compound,Efficacy [1],IC50 [2],IC50 [3],EC50 [4],other results
c1cc2[nH]cc(CCN3CCCC3)c2cc1-n1cnnc1,120%,,,,
CN1CCN(CCc2c[nH]c3ccc(-n4cnnc4)cc23)CC1,63%,310 nM,140 nM,80 nM,
